According to patent US11920185B2, “Method of inactivating microbes by citraconic anhydride” (Roche Molecular Systems, Inc., priority 2015, dated 2024):
Where two headings read alike, the source gives them in different places.

Test system: lambda bacteriophage GT11
Experiment: Titering (plaque assay) of citraconic anhydride-treated lambda bacteriophage on E. coli Y1088
Assay type: cell-based
Details: for Titer, Tricine, After 1 month / Titer, Tricine, Day 1: stored in 10 mM Tricine pH 8.3; for Titer, Tris, After 1 month / Titer, Tris, Day 1: stored in 10 mM Tris pH8.3; for Titer pfu/ml (at 1 month): stored one month at 4° C.
Experimental: In order to analyze lambda bacteriophage GT11 inactivation using citraconic anhydride (also referred to as “Cit” or “cit”), a titration was performed.
10 μl of working solution of citraconic anhydride in DMF was added to 1 ml lambda bacteriophage in SM buffer, which is 0.1 M NaCl, 10 mM MgSO^4, 50 mM Tris pH 7.5, 0.01% gelatin (Sambrook and Russell, supra, page A2.8) where the phage was provided at 1×10^7 pfu/ml). The reaction was performed at room temperature for 1 hour and then stored at 4° C. for 7 days to one month. The phage solutions were titered to determine the effect of the citraconic anhydride modification on the phage.
Titering of bacteriophage was performed as follows: The host bacterium, E. coli Y1088, was inoculated into 15 mls luria broth supplemented with 10 mM MgSO4 and 0.2% Maltose (w/v) using a 0.1% inoculum and incubated at 37° C. to an OD<=1. The cells were concentrated by centrifugation (10 minutes at 500×g) and the cell pellet resuspended in ½ volume of sterile 10 mM MgSO4. The E. coli cells were diluted to 0.5 OD600 with 10 mM MgSO4. The bacteriophage was serially diluted in SM Buffer as follows. Pipet 10 μL phage into the tube labeled 10^−2. Resuspend by vortexing. Using a new tip, pipet 10 μL of the 10^−2 dilution into the tube labeled 10^−4. Resuspend by vortexing. Repeat the 100-fold serial dilutions to the 10^−8 tube. From the 10^−8 tube, perform 10-fold dilutions to the 10^−9 and 10^−10 tubes. Add 100 μL of phage from the 10^−8 s to the 10^−9 tube, vortex, and add 100 μL from the 10^−9 tube to the 10^−10 tube. Vortex the 10^−10 tube. Add 300 μL E. coli to each of 5 sterile 17×100 mm Falcon polypropylene round bottom tubes (#352057) for each sample being titered. Add 100 μL of the diluted […] to the tube (dilutions 10^−4, 10^−6, 10^−8, 10^−9 and 10^−10). Let sit 10 minutes at room temperature. Incubate 10 minutes at 37° C. Meanwhile, label the NZCYM plates with the phage sample and the dilution. To the first tube still in the 37° C. heat block, add 3 mL top agar (from the bottle of top agar in the 50° C. bath), vortex the tube, and quickly pour onto the NZCYM plate. Swirl the plate quickly so the top agar covers the entire plate. Allow the top agar to solidify on the bench. Repeat with each tube. Incubate the plates at 37° C. overnight in an inverted position. The next day, count the plaques and calculate the titer by using the dilution which provides the most countable number of plaques.
This experiment tested the stability of citraconic anhydride (Cit)-treated lambda bacteriophage. Phage was inactivated using different Cit concentrations and stored for one month at 4° C.
Bacteriophage targets treated with different concentrations of Cit were stored in different buffers and then evaluated for their inactivation status. Targets were stored in either 10 mM Tris pH8.3 or 10 mM Tricine pH 8.3.

CC1=CC(=O)OC1=O [citraconic anhydride]
Day 1 - Titer: 6.7 × 10^6 pfu/ml | Day 8 - Titer (1.1 μM final concentration, stored at 4° C.): 3.9 × 10^7 pfu/ml | Day 1 - Titer (11 μM final concentration): 9.0 × 10^6 pfu/ml | Day 8 - Titer (11 μM final concentration, stored at 4° C.): 2.9 × 10^7 pfu/ml | Day 1 - Titer (0.11 mM final concentration): 5.5 × 10^6 pfu/ml | Day 8 - Titer (0.11 mM final concentration, stored at 4° C.): 3.6 × 10^7 pfu/ml | Day 1 - Titer (1.1 mM final concentration): 1.8 × 10^6 pfu/ml | Day 8 - Titer (1.1 mM final concentration, stored at 4° C.): 2.0 × 10^7 pfu/ml | Titer, Tricine, After 1 month (5.5 mM Cit): 3 × 10^3 pfu/ml | Titer, Tricine, Day 1 (5.5 mM Cit): 1 × 10^3 pfu/ml | Titer, Tris, After 1 month (5.5 mM Cit): 0 pfu/ml | Titer, Tris, Day 1 (5.5 mM Cit): 1.5 × 10^3 pfu/ml | Titer pfu/ml (Day 1) (5.5 mM final Cit concentration): 1.5 × 10^6 pfu/ml | Titer pfu/ml (at 1 month) (5.5 mM final Cit concentration): 1.5 × 10^6 pfu/ml | Titer, Tricine, After 1 month (11 mM Cit): 0 pfu/ml | Titer, Tricine, Day 1 (11 mM Cit): 0 pfu/ml | Titer, Tris, After 1 month (11 mM Cit): 0 pfu/ml | Titer, Tris, Day 1 (11 mM Cit): 0 pfu/ml | Titer pfu/ml (Day 1) (11 mM final Cit concentration): 0 pfu/ml | Titer pfu/ml (at 1 month) (11 mM final Cit concentration): 0 pfu/ml | Day 1 - Titer (11 mM final concentration in reaction with phage, 1 h room temperature, phage 1×10^7 pfu/ml in SM buffer): 0 pfu/ml | Day 8 - Titer (11 mM final concentration, stored at 4° C.): 0 pfu/ml | Phage inactivation (11 mM, persisted after 7 days): complete inactivation | Titer, Tricine, After 1 month (22 mM Cit): 0 pfu/ml | Titer, Tricine, Day 1 (22 mM Cit): 0 pfu/ml | Titer, Tris, After 1 month (22 mM Cit): 0 pfu/ml | Titer, Tris, Day 1 (22 mM Cit): 0 pfu/ml | Titer pfu/ml (Day 1) (22 mM final Cit concentration): 0 pfu/ml | Titer pfu/ml (at 1 month) (22 mM final Cit concentration): 0 pfu/ml | Persistence of phage inactivation after storage (Cit-treatment at >=11 mM, storage in 10 mM Tris pH8.3 or 10 mM Tricine pH 8.3): provides inactivation for 1 month | Persistence of phage inactivation (greater than or equal to 11 mM, stored at 4° C.): remain inactivated for 1 month
